{
  "source": "patent US20250346572A1",
  "about": "“NON-ACID INHIBITORS OF INOSITOL HEXAKISPHOSPHATE KINASE (IP6K) AND METHODS OF USE THEREOF” (Lieber Institute, Inc., priority 2022, published 2025)",
  "origin": "cited, not measured here",
  "tested_on": "Mice treated with HFD",
  "details": "HFD for 8 weeks, then daily intraperitoneal 20 mg/kg TNP and HFD for 18 days",
  "data": [
    {"smiles": "O=[N+]([O-])c1ccc(CNc2nc(NCc3cccc(C(F)(F)F)c3)nc3nc[nH]c23)cc1", "note": "[TNP, N2-(m-trifluorobenzyl)-N6-(p-nitrobenzyl)purine]", "values": [
      {"measurement": "glucose tolerance and insulin sensitivity", "value": "improved glucose tolerance and insulin sensitivity"},
      {"measurement": "serum insulin levels", "value": "lower serum insulin levels"}
    ]}
  ]
}
